Format in all cases: in vivo
In assay [1] the test system is velvetleaf (Abutilon theophrastic). The experiment in a line: Example 23: adjuvants tank mixed with chlorimuron ethyl, percent control from green fresh weights. The conditions noted are these: herbicide alone, no adjuvant; chlorimuron ethyl 1.5 g/ha; 187 L/ha; after two weeks. The procedure: (§1) The effect of adjuvants on the activity of chlorimuron ethyl was investigated by tank mixing the adjuvants with the herbicide. Evaluation of the adjuvants was made by mixing the adjuvant with an herbicide solution and spraying the resulting solution at a rate of 1.5 g/ha chlorimuron ethyl in a spray volume of 187 L/ha on velvetleaf (Abutilon theophrastic). Four replications were made of each treatment. Plants were evaluated after two weeks by measuring their green fresh weights and convening these weight by comparison to an untreated control treatment into percent control values.

The subject of assay [2] is giant foxtail (Setaria faberi). The experiment in a line: Example 21: adjuvants tank mixed with isopropylamine salt of glyphosate, percent control from green fresh weights. The conditions noted are these: herbicide alone, no added adjuvant; 210 g/ha isopropylamine salt of glyphosate; 187 L/ha; after two weeks. The procedure:
as §1, with “of the isopropylamine salt of glyphosate” for “of chlorimuron ethyl”, “of 210” for “of 1.5”, “g/ha isopropylamine salt of glyphosate” for “g/ha chlorimuron ethyl”, “on giant foxtail (Setaria faberi).” for “on velvetleaf (Abutilon theophrastic).”, “and converting” for “and convening”

Assay [3] relates to Veronica agrestis (VERAG). The experiment in a line: Example 5: weed control, SCS5045 surfactant mixed with tribenuron methyl, visual percent growth reduction. The conditions noted are these: where named, 0.1%, 300 L/ha, 70 days after treatment. The source says:
(§2) Evaluation of SCS5045 surfactant was made by mixing the surfactant with tribenuron methyl herbicide and spraying the resulting solution at a rate of 5.625 to 45 g/ha tribenuron methyl in a spray volume of 300 L/ha on Viola arvensis (VIOAR) and Veronica agrestis (VERAG). Surfactants were applied at a concentration of 0.1% by weight (if the surfactant is dry) or by volume (if the surfactant is a liquid) of surfactant per volume of spray solution. Three replications were made of each treatment. Weed control was visually assessed 70 days after treatment by evaluating the percent growth reduction, using a 0 to 100% scale where 0% equals no control, and 100% equals death of the weed.

The test system of assay [4] is Viola arvensis (VIOAR). Described as above. Conditions: where named, 0.1%, 300 L/ha, 70 days after treatment.
Source text: as §2

Assay [5] relates to common lambsquarters (Chenopodium album L.). Briefly: Example 24: adjuvants tank mixed with thifensulfuron methyl, percent control from green fresh weights. The conditions noted are these: herbicide alone, no adjuvant; thifensulfuron methyl 2 g/ha; 187 L/ha; after two weeks. The procedure:
as §1, with “thifensulfuron methyl” for “chlorimuron ethyl”, “2” for “1.5”, “common lambsquarters (Chenopodium album L.).” for “velvetleaf (Abutilon theophrastic).”, “converting” for “convening”

Assay [6] deals with giant foxtail (Setaria faberi). Briefly: Example 19: adjuvants tank mixed with nicosulfuron, percent control from green fresh weights. The conditions noted are these: Adjuvant Conc. 0 % w/w (no adjuvant); nicosulfuron 3.5 g/ha; 187 L/ha; after two weeks. On the procedure: (§3) The effect of adjuvants on the activity of nicosulfuron was investigated by tank mixing the adjuvants with the herbicide. Evaluation of the adjuvants was made by mixing the adjuvant with a nicosulfuron solution and spraying the resulting solution at a rate of 3.5 g/ha nicosulfuron in a spray volume of 187 L/ha on giant foxtail (Setaria faberi). Three replications were made of each treatment. Plants were evaluated after two weeks by measuring their green fresh weights and converting these weight by comparison to an untreated control treatment into percent control values.

For assay [7], the system named is giant foxtail (Setaria faberi). Briefly: Example 20: adjuvants tank mixed with nicosulfuron, percent control from green fresh weights. Conditions: herbicide alone, no adjuvant; nicosulfuron 3.5 g/ha; 187 L/ha; after two weeks. On the procedure:
as §3, with “Four” for “Three”, “treatment. The experiment was repeated three times.” for “treatment.”

Assay [8] relates to Alopecurus myosuroides (ALOMY). The experiment in a line: Example 8: field weed control, adjuvants mixed with flupyrsulfuron methyl, visual percent growth reduction and head count. Conditions: surfactant, where named, 0.1%; for % control ALOMY: 300 L/ha, 60 days after treatment; for Heads/m^2 ALOMY: at 85 days, untreated 784. The source says: (§4) Evaluation of the adjuvants was made, in the field by mixing the adjuvant with flupyrsulfuron methyl herbicide and spraying the resulting solution at a rate of 2.5 to 20 g/ha flupyrsulfuron methyl in a spray volume of 300 L/ha on Alopecurus myosuroides (ALOMY). Surfactants were applied at a concentration of 0.1 % by weight of SC5045 or 0.1 % by volume of Trend® 90 per volume of spray solution. Three replications were made of each treatment. Weed control was visually assessed 60 days after treatment by evaluating the percent growth reduction, using a 0 to 100% scale where 0% equals no control, and 100% equals death of the weed and by counting the number of ALOMY heads per m^2, at 85 days.

Assay [9] deals with Veronica hederifolia (VERHE). The experiment in a line: Example 7: field weed control, SCS5045 surfactant mixed with metsulfuron methyl, visual percent growth reduction. Conditions: where named, 0.1%, 300 L/ha, 50 days after treatment.
Source text: as §2, with “was made, in the field” for “was made”, “with metsulfuron” for “with tribenuron”, “g/ha metsulfuron” for “g/ha tribenuron”, “on” for “on Viola arvensis (VIOAR) and”, “Veronica hederifolia (VERHE).” for “Veronica agrestis (VERAG).”, “assessed 50” for “assessed 70”

The test system of assay [10] is giant foxtail (Setaria faberi). Briefly: Example 22: adjuvants tank mixed with quizalofop-ethyl, percent control from green fresh weights. The conditions noted are these: herbicide alone, no adjuvant; quizalofop-ethyl 3.5 g/ha; 187 L/ha; after two weeks. On the procedure: as §3, with “of quizalofop-ethyl” for “of nicosulfuron”, “with an herbicide” for “with a nicosulfuron”, “g/ha quizalofop-ethyl” for “g/ha nicosulfuron”, “faberi). Four” for “faberi). Three”, “treatment. The experiment was repeated two times.” for “treatment.”

For assay [11], the system named is Alopecurus myosuroides (ALOMY). The experiment in a line: Example 6: field weed control, SCS5045 surfactant mixed with sulfosulfuron, visual percent growth reduction and head count. The conditions noted are these: where named, 0.1%; for % control ALOMY: 300 L/ha, 60 days after treatment; for Heads/m^2 ALOMY: counted 85 days after treatment, untreated 400.
Source text: as §4, with “SCS5045 surfactant” for “the adjuvants”, “surfactant” for “adjuvant”, “sulfosulfuron” for “flupyrsulfuron methyl”, “11.25” for “2.5”, “45 g /ha sulfosulfuron” for “20 g/ha flupyrsulfuron methyl”, “weed.” for “weed and by counting the number of ALOMY heads per m^2, at 85 days.”
The number of ALOMY heads per m^2 was also counted 85 days after treatment.

The mark [12] stands for this setting: tribenuron methyl 5.625 g ai/ha.
[13] abbreviates: tribenuron methyl 11.25 g ai/ha.
Where [14] appears, read: flupyrsulfuron methyl 2.5 g herbicide /ha.
The mark [15] stands for this setting: flupyrsulfuron methyl 5 g herbicide /ha.
[16] abbreviates: flupyrsulfuron methyl 10 g herbicide /ha.
Setting [17] is: flupyrsulfuron methyl 20 g herbicide /ha.
[18] abbreviates: sulfosulfuron 11.25 g herbicide /ha.
Where [19] appears, read: sulfosulfuron 22.5 g herbicide /ha.
[20] abbreviates: sulfosulfuron 33.75 g herbicide /ha.
The mark [21] stands for this setting: sulfosulfuron 45 g herbicide /ha.

As to `CCOC(=O)c1ccccc1S(=O)(=O)NC(=O)Nc1nc(Cl)cc(OC)n1` [Chlorimuron Alone, chlorimuron ethyl], the “% Velvetleaf Control” value in assay [1] is 53%.
In the case of `CC(C)N.O=C(O)CNCP(=O)(O)O` [Glyphosate IPA Alone, isopropylamine salt of glyphosate], in assay [2], the “% Control” value is listed as 85%.
Regarding `COC(=O)c1ccccc1S(=O)(=O)NC(=O)N(C)c1nc(C)nc(OC)n1` [Tribenuron methyl, tribenuron methyl], the “% control VERAG” value in assay [3] (setting [12]) amounted to 47%; in assay [3] (setting [13]), 60%; in assay [3] (tribenuron methyl 22.5 g ai/ha) it was 63%; in assay [3] (tribenuron methyl 45 g ai/ha), 87%. Besides, the “% control VIOAR” value in assay [4] (setting [12]) amounted to 27%; in [4] (setting [13]) it was 75%; in assay [4] (tribenuron methyl 22.5 g ai/ha) it was 80%; in assay [4] (tribenuron methyl 45 g ai/ha) it was 99%.
On to `COC(=O)c1sccc1S(=O)(=O)NC(=O)Nc1nc(C)nc(OC)n1` [Thifensulfuron Alone, thifensulfuron methyl], for which the “% Common Lambsquarters Control” value in assay [5] is recorded as 11%.
In the case of `COc1cc(OC)nc(NC(=O)NS(=O)(=O)c2ncccc2C(=O)N(C)C)n1` [Nicosulfuron Alone, nicosulfuron], the percent control in assay [6] was 0%. For the same compound, the “% Control” value in assay [7] is listed as 2%.
Consider `COC(=O)c1ccc(C(F)(F)F)nc1S(=O)(=O)NC(=O)Nc1nc(OC)cc(OC)n1` [KE459, flupyrsulfuron methyl], for which the “% control ALOMY” value in assay [8] (setting [14]) came to 63%; in assay [8] (setting [15]), 73%; in assay [8] (setting [16]), 77%; in assay [8] (setting [17]), 88%. In addition, the “Heads/m^2 ALOMY” value amounted to 224 Heads/m^2 in assay [8] (setting [14]), 164 Heads/m^2 in assay [8] (setting [15]), 16 Heads/m^2 in [8] (setting [16]) and 8 Heads/m^2 in [8] (setting [17]).
In the case of `COC(=O)c1ccccc1S(=O)(=O)NC(=O)Nc1nc(C)nc(OC)n1` [T6376, metsulfuron methyl], the “VERHE (percent growth reduction)” value in assay [9] (metsulfuron methyl 5.625 g herbicide /ha) is 33%; in assay [9] (metsulfuron methyl 11.25 g herbicide /ha), 33%; in assay [9] (metsulfuron methyl 22.5 g herbicide /ha), 52%; in assay [9] (metsulfuron methyl 45 g herbicide /ha) it was 100%.
`CCOC(=O)C(C)Oc1ccc(Oc2cnc3cc(Cl)ccc3n2)cc1` (stereo not shown) [Quizalofop Ethyl Alone, quizalofop-ethyl]: in [10], the “% Control” value turned out to be 7%.
On to `CCS(=O)(=O)c1nc2ccccn2c1S(=O)(=O)NC(=O)Nc1nc(OC)cc(OC)n1` [Sulfosulfuron, sulfosulfuron], for which the “% control ALOMY” value was 33% in assay [11] (setting [18]), 47% in assay [11] (setting [19]), 60% in assay [11] (setting [20]) and 77% in [11] (setting [21]). The “Heads/m^2 ALOMY” value in assay [11] (setting [18]) was 209 Heads/m^2; in assay [11] (setting [19]) it was 76 Heads/m^2; in assay [11] (setting [20]), 25 Heads/m^2; in [11] (setting [21]), 6 Heads/m^2.

(Values after patent EP0968649A1, “Adjuvants for novel dry herbicide formulations” (E.I. DU PONT DE NEMOURS AND COMPANY, priority 1998, dated 2000).)
